Laboratory results from paper PMC11050087, “Polyphenols from Maackia amurensis Heartwood Protect Neuronal Cells from Oxidative Stress and Prevent Herpetic Infection” (International Journal of Molecular Sciences, 2024).
“And” between values parts separate entries of the source, which are not always exact repeats. Equal entries are not always repeated.

What was measured:
HSV-1 [1] = experiment: Virucidal activity, RT-PCR assay (HSV-1 pretreated with compounds); type: cell-based, HSV-1 strain L2; conditions: for Ct: 72 h; for −ΔCt: vs virus control; for activity at 0.1 µg/mL / activity at 1 µg/mL / activity at 10 µg/mL / log reduction at 0.1 µg/mL / log reduction at 1 µg/mL / log reduction at 10 µg/mL: Human alphaherpesvirus 1, 72 h; for activity at 0.1 µg/mL / activity at 1 µg/mL / activity at 10 µg/mL: read-out: 2^−ΔCt; for log reduction at 0.1 µg/mL / log reduction at 1 µg/mL / log reduction at 10 µg/mL: read-out: log10
Description: Vero cells grown on 96-well plates were infected with the virus (100 TCID50/mL), pretreated with polyphenolic compounds at concentrations 0.1, 1 and 10 μg/mL. After 72 h of cell incubation, viral DNA was extracted from the supernatants, and the relative level of HSV-1 DNA was determined using RT-PCR. The effect of polyphenols on the relative level of viral DNA was assessed using the 2^−∆Ct method and reported as fold reduction compared to virus control.
(§1) The HSV-1 strain L2 obtained from N.F. Gamaleya Federal Research Centre for Epidemiology and Microbiology (Moscow, Russia) was grown in Vero cells as previously described.
(§2) We determined the direct inhibitory effect of polyphenolic compounds from M. amurensis heartwood on HSV-1 (virucidal effect). We mixed the virus at an infectious dose (100 TCID50/mL) with polyphenolic compounds (from 0.1 to 100 µg/mL) at a ratio of 1:1 (v/v) and incubated for an hour at 37 °C. Then, we infected the monolayer of Vero cells grown on 96-well plates (1 × 10^4 cells/well) with HSV-1 pretreated with the studied compounds. After 1 h adsorption at 37 °C, the cells were washed with phosphate-buffered saline (PBS) and overlaid by the maintenance medium with 1% FBS. The plates were incubated for 72 h at 37 °C in a CO2-incubator. The cytopathic effect (CPE) inhibition assay and real-time reverse transcription-PCR (RT-PCR) assay were used to evaluate virucidal effect of the tested compounds.
We performed the RT-PCR assay as we previously described in detail in [22]. Briefly, HSV-1 DNA was extracted after incubation from cell supernatants by using the DNA-sorb-AM (K1-12-100-CE) nucleic acid extraction kit (AmpliSens®, Moscow, Russia) according to the manufacturer′s instructions. We treated the supernatants with a lysis solution that contained guanidine chloride (chaotropic agent) in the presence of sorbent (silica particles). As the elution solution was added, the DNA was […] silica particles and separated from the sorbent particles by centrifugation.
We detected the DNA of HSV-1 in the obtained samples using the AmpliSens® HSV I, II-FRT-100F PCR kit (AmpliSens®, Moscow, Russia) on a real-time PCR instrument Rotor-Gene Q (Qiagen, Hilden, Nordrhein-Westfalen, Germany) according to the manufacturer′s instructions. The PCR reaction conditions were the following: initial denaturation at 95 °C for 15 min; then 5 cycles at 95 °C for 5 s, at 60 °C for 20 s, at 72 °C for 15 s; then 40 cycles at 95 °C for 5 s, at 60 °C for 20 s, and at 72 °C for 15 s. A negative sample was used as the amplification control for each run. The threshold cycle number Ct, was measured as the PCR cycle, where the amount of the amplified target reached the threshold value; the Ct values ≥ 37 indicated the absence of the HSV-1 DNA in the samples. We assessed the anti-HSV-1 activity of the studied compounds by the reduction in the viral DNA levels using the 2^−ΔCt method according to Equation (2):(2) ΔCt=Ctcv−Cttv where Ct is the threshold cycle number measured as the PCR cycle, where the amount of the amplified target reached the threshold value, […]

[2] = Cytotoxicity against Vero cells (MTT assay); type: cell-based; conditions: African green monkey
Description: We prepared the stock solutions of the tested compounds (10 mg/mL) in DMSO (Sigma, St. Louis, MO, USA). For the MTT assay and further studies of anti-HSV-1 activity, we diluted the stock solutions with DMEM so that the final concentration of DMSO was 0.5%.
We used MTT assay to determine the cytotoxic effect of the tested compounds against Vero cells. We performed the MTT assay as previously described.

HSV-1 [3] = experiment: Virucidal activity, CPE inhibition assay (HSV-1 pretreated with compounds); type: cell-based, HSV-1 strain L2; conditions: for IC50: Human alphaherpesvirus 1, virus pretreated with compound (virucidal), CPE assay, Vero cells, 100 TCID50/mL; for SI: ratio of CC50 to IC50, virucidal scheme
Description: The antiviral activity of polyphenols from M. amurensis against HSV-1 was assessed using the cytopathic effect inhibition (CPE) assay. To study the inhibitory effect of polyphenolic compounds directly on the HSV-1 virus (direct virucidal activity), the monolayer of Vero cells grown on 96-well plates (1 × 10^4 cells/well) was infected with the virus (100 TCD50/mL), pretreated with different concentrations of polyphenolic compounds.
as §1, §2
We previously described this method in detail in [22]. We performed the MTT assay to evaluate the antiviral activity of polyphenolic compounds. The viral inhibition rate (IR, %) was calculated according to Equation (1):(1) IR, %=Atv−Acv/Acd−Acv×100, where Atv is the absorbance of cells infected with HSV-1 pretreated with the studied compounds,
We calculated the selectivity index (SI) as the ratio of CC50 to IC50. Experiments were repeated three times.

[4] = system: 6-OHDA-treated Neuro-2a cells; experiment: 6-OHDA-induced neurotoxicity model, cell viability test (MTT); type: cell-based, murine; conditions: compounds at 10, 1, 0.1 µM; 6-OHDA 100 µM
Description: Neuro-2a cells were incubated with the studied polyphenolic compounds for 1 h. Then, 100 µM of 6-hydroxydopamine 6-OHDA were added. We determined the percentage of living Neuro-2a cells after treatment with 6-OHDA (Figure 4a–d).
Figure 4 The effect of polyphenolic compounds isolated from M. amurensis heartwood on the viability of Neuro-2a cells treated with 6-OHDA (100 μM) (a–d). The viability of Neuro-2a cells treated with various compounds and 6-OHDA was measured by the MTT assay. Polyphenolic compounds isolated from M. amurensis heartwood were used at concentrations 10, 1, 0.1 μM. The data are presented as means ± SEM of three independent replicates. (*) indicate p < 0.05 versus 6-OHDA-treated cells.
After 24 h of adhesion, Neuro-2a cells (5 × 10^4 cells/mL) were treated with polyphenolic compounds at concentrations of 0.1, 1 and 10 μM for 1 h. Then, 100 µM of 6-OHDA or 1 mM of PQ (Sigma-Aldrich, St. Louis, MO, USA) were added. Cells incubated without inductors or with inductors were used as positive and negative control, respectively. Cell viability was measured after 24 h using the MTT assay.

With `COc1ccc([C@H]2COc3cc(O)ccc3[C@@H]2c2c(O)cc(O)cc2/C=C/c2ccc(O)c(O)c2)c(O)c1` [Compound 14, maackiapicevestitol] the Ct (HSV-1 [1]; 0.1 µg/mL) was 18.4 ± 2.4, the “−ΔCt” value (HSV-1 [1]; 0.1 µg/mL) was −0.30 ± 0.03 and the Ct (HSV-1 [1]; 1 µg/mL) was 19.2 ± 2.5. The “−ΔCt” value (HSV-1 [1]; 1 µg/mL) was −1.1 ± 0.1, the “anti-HSV-1 activity by RT-PCR (in words)” value (HSV-1 [1]; 10 µg/mL) was “significantly reduced the level of viral DNA” and the Ct (HSV-1 [1]; 10 µg/mL) was 27.1 ± 3.8. The “−ΔCt” value (HSV-1 [1]; 10 µg/mL) was −9.0 ± 1.2, the activity at 0.1 µg/mL (HSV-1 [1]) was 81.2 ± 11% and the activity at 1 µg/mL (HSV-1 [1]) was 46.6 ± 5.6%. For the same compound, the activity at 10 µg/mL (HSV-1 [1]) was 0.195 ± 0.02%, the log reduction at 0.1 µg/mL (HSV-1 [1]) was 0.09 ± 0.01 and the log reduction at 1 µg/mL (HSV-1 [1]) was 0.33 ± 0.04. For the same compound, the log reduction at 10 µg/mL (HSV-1 [1]) was 2.7 ± 0.3, the CC50 [2] was 162 µg/mL and 316 µM and the IC50 (HSV-1 [3]) was 8.6 µg/mL and 16.7 µM. It also gave an SI (HSV-1 [3]) of 18.9 ± 2.8.

In the case of `Oc1ccc2c(c1)OC[C@H]1c3cc4c(cc3O[C@@H]21)OCO4` [Compound 4, maackiain], the Ct (HSV-1 [1]; 0.1 µg/mL) is reported as 18.1 ± 2.2, the “−ΔCt” value (HSV-1 [1]; 0.1 µg/mL) is reported as 0 and the Ct (HSV-1 [1]; 1 µg/mL) is reported as 19.0 ± 2.1. For the same compound, the “−ΔCt” value (HSV-1 [1]; 1 µg/mL) was −0.9 ± 0.1, the “anti-HSV-1 activity by RT-PCR (in words)” value (HSV-1 [1]; 10 µg/mL) was “moderate anti-HSV-1 activity” and the Ct (HSV-1 [1]; 10 µg/mL) was 20.7 ± 2.3. For the same compound, the “−ΔCt” value (HSV-1 [1]; 10 µg/mL) was −2.6 ± 0.3, the activity at 0.1 µg/mL (HSV-1 [1]) was 100% and the activity at 1 µg/mL (HSV-1 [1]) was 53.6 ± 6.4%. For the same compound, the activity at 10 µg/mL (HSV-1 [1]) was 16.5 ± 2.1%, the log reduction at 0.1 µg/mL (HSV-1 [1]) was 0 and the log reduction at 1 µg/mL (HSV-1 [1]) was 0.3 ± 0.04. The log reduction at 10 µg/mL (HSV-1 [1]) was 0.8 ± 0.1, the CC50 [2] was 152 µg/mL and 536 µM and the IC50 (HSV-1 [3]) was 28.3 µg/mL and 99.6 µM. For the same compound, the SI (HSV-1 [3]) was 5.4 and 5.4 ± 0.7 and the “effect on viability of 6-OHDA-treated Neuro-2a cells (in words)” value [4] was “weak effect on cell viability”.
